This is an account of results in patent publication US9248109B2, “High penetration prodrug compositions of peptides and peptide-related compounds” (priority 2009, dated 2016).

Data set [1] is described as follows: In vitro penetration rate across isolated human skin in modified Franz cells (HPLC). The following applies: parent drugs; at lowest detectable value, considered not detectable.
Procedure: The penetration rates of HPPs/HPCs and their parent drugs through human skin were measured in vitro by modified Franz cells. The Franz cells had two chambers, the top sample chamber and the bottom receiving chamber. The human skin tissue (360-400 p.m thick) that separated the top and the receiving chambers was isolated from the anterior or posterior thigh areas.
A compound tested (2 mL, 20% in 0.2 M phosphate buffer, pH 7.4) was added to the sample chamber of a Franz cell. The receiving chamber contains 10 ml of pH 7.4 phosphate buffer (0.2 M) which was stirred at 600 rpm. The amount of the tested compound penetrating the skin was determined by high-performance liquid chromatography (HPLC) method.
Data set [2] concerns mice. Description: Acetic acid writhing inhibition in mice, transdermal. The format is in vivo, mouse. The following applies: 10 mg/kg transdermally to the neck, acetic acid i.p. 30 minutes later; for rate of writhing inhibition (%): based on the control group; for No. of Writhings: control 35.0. The method, then: The number of writhings that occurred when mice were administered an acetic acid solution intraperitoneally were counted, and the rate of inhibition based on the control group was calculated. […] 30 minutes later, acetic acid solution was administered. The group A was the control group.
On the technique in general: An intraperitoneal irritant provokes the stretching counted in writhing tests.

The subject of data set [3] is Osborne-Mendel rats. The conditions noted are these: injected intraperitoneally, rats starved overnight, high-fat diet; cited from earlier work.
In data set [4] the test system is rats. Description: Solicitation and copulation of rats treated transdermally with HPPs/HPCs of Melanocortin II. The format is in vivo, rat. The following applies: for increase in copulation comparing to the control group / increase in solicitation comparing to the control group: 2 mg/kg once per day for 5 days; for Increased Copulation / Increased Solicitation: 2 mg/kg on the back once per day for 5 days, control = 1. The method, then: The same dosage of cyclo(1,6)-Ac-Nle-Asp-His-Phe-Arg(NO2)-Trp-Lys-OCH2CH2N(CH2CH3)2.HCl(SEQ ID NO: 201) (peptide B) was applied to the back of another group of male rats (Group B-1, 30 rats). Rats of a control group were not treated with any drug. […] 6 fold increase in solicitation and 3 fold increase in copulation for Group B-1 in rats were observed comparing to the control group (Table 15).
2 mg/kg peptide A and peptide B in 0.2 ml of pH 7.0 phosphate buffer (0.1M) were applied to the back of both male rats (30 rats) and female rats (30 rates) once per day for 5 days. Rats of a control group were not treated with any drug.

Where [5] appears, read: male and female rats treated (Groups A-2, B-2).
Where [6] appears, read: male rats treated (Groups A-1, B-1).

With `CSCC[C@H](NC(=O)[C@H](Cc1ccccc1)NC(=O)CNC(=O)CNC(=O)[C@@H](N)Cc1ccc(O)cc1)C(=O)O` [Met-enkephalin, H-Tyr-Gly-Gly-Phe-Met-OH], the apparent flux value in data set [1] is reported as 1 μg/cm^2/h.
In the case of “Ac-Tyr(Ac)-D-Ala-Gly-Phe-Leu-OCH2CH2N(CH2CH3).HCl”, in data set [2], the “rate of writhing inhibition (%)” value was found to be 85% and the “No. of Writhings” value was determined as 5.2.
In the case of H-Val-Pro-Asp-Pro-Arg OH, the “food intake (in words)” value in data set [3] is “dose-dependent reduction in food intake”.
Take “HCl.H-Tyr(Ac)-D-Ala-Gly-Phe-Leu-OCH2(CH2)4—CH3 [B]”: in data set [2], the “rate of writhing inhibition (%)” value was 75% and the “No. of Writhings” value was determined as 8.6.
For the compound HCl.H-Tyr(Ac)-D-Ala-Gly-Phe-Met(O)—OL, in data set [2], the “rate of writhing inhibition (%)” value was found to be 91% and the “No. of Writhings” value is 3.2.
Consider “cyclo(1,6)-Ac-Nle-Asp-His-Phe-Arg(diAc)-Trp-Lys-OCH2CH2N(CH2CH3)2.HCl”, for which the “increase in copulation comparing to the control group” value in data set [4] (setting [5]) worked out at 5 fold; in data set [4] (setting [6]), 3 fold. Also, the “increase in solicitation comparing to the control group” value in data set [4] (setting [5]) turned out to be 6 fold; in data set [4] (setting [6]), 5 fold. The “Increased Copulation” value was 5 in data set [4] (male and female rats treated); 3 in data set [4] (male rats treated). Further, the “Increased Solicitation” value amounted to 6 in data set [4] (male and female rats treated); 5 in data set [4] (male rats treated).
